Source: publication PMC8084333, “Trehalose and α-glucan mediate distinct abiotic stress responses in Pseudomonas aeruginosa” (PLoS Genetics, 2021)

Tests used:
Assay type in all cases: biochemical
[1] = molecular target: T1, MalQ (Pseudomonas aeruginosa, UniProt Q9I1V2); assay: MALDI-TOF MS; settings: 1 mM substrate; disproportionation
T1 construct: gene PA2163; recombinant, N-terminal 6xHis-tag (pET101), E. coli SoluBL21, HisTrap
T1 sequence (Q9I1V2 1-684): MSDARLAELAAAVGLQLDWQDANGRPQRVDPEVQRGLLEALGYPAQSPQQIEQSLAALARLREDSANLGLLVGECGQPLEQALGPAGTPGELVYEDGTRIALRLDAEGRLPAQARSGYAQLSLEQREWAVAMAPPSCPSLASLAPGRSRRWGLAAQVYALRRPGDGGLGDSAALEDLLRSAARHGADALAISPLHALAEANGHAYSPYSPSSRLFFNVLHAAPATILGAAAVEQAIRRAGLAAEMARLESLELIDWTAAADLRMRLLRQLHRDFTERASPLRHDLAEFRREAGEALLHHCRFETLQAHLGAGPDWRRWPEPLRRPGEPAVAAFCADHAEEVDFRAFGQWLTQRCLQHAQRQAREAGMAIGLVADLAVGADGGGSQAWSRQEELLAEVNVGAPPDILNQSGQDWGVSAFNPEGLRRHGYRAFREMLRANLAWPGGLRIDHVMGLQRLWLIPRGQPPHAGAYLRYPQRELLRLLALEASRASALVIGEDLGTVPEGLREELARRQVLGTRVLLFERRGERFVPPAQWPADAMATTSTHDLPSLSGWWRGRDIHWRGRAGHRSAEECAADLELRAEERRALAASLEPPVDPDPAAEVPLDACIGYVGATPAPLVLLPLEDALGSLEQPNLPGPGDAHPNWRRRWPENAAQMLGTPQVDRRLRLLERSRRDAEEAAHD

[2] = molecular target: T2, TreS/Pep2 (Pseudomonas aeruginosa, UniProt Q9I1W3); assay: coupled spectrophotometric ADP-release assay (PK/LDH), global fit; settings: maltokinase (Pep2 domain); ATP varied, 5 mM MgCl2, pH 8.0, 21 °C; KiB term of random order ternary complex model (substrate dissociation constant), not an inhibition constant
T2 construct: gene PA2152; natural TreS-Pep2 fusion; synthetic codon-optimised gene, N-terminal 6xHis-tag with TEV site, E. coli BL21(DE3), Ni and S200 columns
T2 sequence (Q9I1W3 1-1100): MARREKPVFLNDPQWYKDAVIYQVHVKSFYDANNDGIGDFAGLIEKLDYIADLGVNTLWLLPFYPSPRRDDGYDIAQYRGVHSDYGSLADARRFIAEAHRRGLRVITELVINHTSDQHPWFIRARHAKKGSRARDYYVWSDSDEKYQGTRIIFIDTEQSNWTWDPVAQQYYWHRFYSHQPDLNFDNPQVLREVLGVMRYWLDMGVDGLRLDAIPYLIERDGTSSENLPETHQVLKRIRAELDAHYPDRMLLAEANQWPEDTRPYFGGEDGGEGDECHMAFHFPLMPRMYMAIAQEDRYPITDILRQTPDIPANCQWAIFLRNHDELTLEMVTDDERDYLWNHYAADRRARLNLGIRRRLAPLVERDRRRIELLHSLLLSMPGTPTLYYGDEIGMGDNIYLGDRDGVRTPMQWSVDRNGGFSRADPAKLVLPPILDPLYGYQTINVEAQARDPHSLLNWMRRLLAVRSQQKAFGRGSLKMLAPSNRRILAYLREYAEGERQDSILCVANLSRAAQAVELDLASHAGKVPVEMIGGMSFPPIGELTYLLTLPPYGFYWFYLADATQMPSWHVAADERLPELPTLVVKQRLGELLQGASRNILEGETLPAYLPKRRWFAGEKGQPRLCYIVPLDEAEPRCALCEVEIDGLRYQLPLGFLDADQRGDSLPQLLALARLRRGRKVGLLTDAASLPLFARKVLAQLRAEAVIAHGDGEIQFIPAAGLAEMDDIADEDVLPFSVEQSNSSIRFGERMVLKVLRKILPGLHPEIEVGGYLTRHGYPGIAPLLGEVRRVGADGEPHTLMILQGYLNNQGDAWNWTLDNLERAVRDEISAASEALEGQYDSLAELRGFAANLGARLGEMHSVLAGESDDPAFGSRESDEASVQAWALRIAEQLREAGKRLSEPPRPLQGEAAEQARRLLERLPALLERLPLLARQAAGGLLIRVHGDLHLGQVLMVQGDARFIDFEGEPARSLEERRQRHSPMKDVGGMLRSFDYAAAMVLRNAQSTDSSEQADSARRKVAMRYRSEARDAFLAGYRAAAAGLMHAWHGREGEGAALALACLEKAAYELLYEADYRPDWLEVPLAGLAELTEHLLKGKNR

[3] = molecular target: T2, TreS/Pep2; assay: TreS activity coupled to Pep2 maltokinase ADP-release assay; settings: trehalose isomerisation (TreS domain); ATP, 5 mM MgCl2, pH 8.0, 21 °C

Structure (SMILES) | MALDI-TOF MS [1] | Ki^Mal [2] [µM] | Km [3] [mM]
OC[C@H]1O[C@H](O[C@H]2[C@H](O)[C@@H](O)C(O)O[C@@H]2CO)[C@H](O)[C@@H](O)[C@@H]1O (stereo partly drawn) [maltose] | We therefore incubated MalQ with maltose | 550 ± 130 | 
OC[C@H]1O[C@H](O[C@H]2O[C@H](CO)[C@@H](O)[C@H](O)[C@H]2O)[C@H](O)[C@@H](O)[C@@H]1O [trehalose] |  |  | > 100
